Read-outs that look alike come from different tables or passages of the source.
What was measured:
S. aureus strain UAMS-1 = format: cell-based, Staphylococcus aureus; settings: 1×MIC, laser microbial growth monitor over 40 hours
Procedure: Spontaneous resistance to the indicated test agent(s) was measured for P. aeruginosa strain PA01 and S. aureus strain UAMS-1 using two liquid culture approaches. […] Growth was measured using the BacterioScan s216Dx laser microbial growth monitor, with optical measurements taken every 3 minutes over 40 hours. Following 40 hours, samples were plated for to measure viable colony forming units and re-tested for drug susceptibility.
To determine if these colonies represented untreated cells vs. resistant cells, 8 individual colonies from each treatment condition were randomly selected and tested for MICs.
Using an automated laser microbial growth monitor, the optical profiles of these cultures were measured continuously over time. […] Again 8 colonies were selected at random from each treatment group.

S. aureus = experiment: Fractional inhibitory concentration, checkerboard MIC; format: cell-based, Staphylococcus aureus; settings: for MIC: Staphylococcus aureus
[1] = test system: planktonic S. aureus cells; experiment: Antimicrobial kill curves; format: cell-based, Staphylococcus aureus; settings: 2× MIC
Procedure: Overnight cultures of the indicated organism were used to inoculate (1:100 dilution) 100 ml of fresh media and grown to mid-exponential phase. […] Aliquots were taken at 1, 2, 3, 4, and 24 hours, serial diluted and plated for colony forming units.

P. aeruginosa biofilm = test system: P. aeruginosa biofilm; design: key: Killing (+) of established biofilms; settings: established biofilms; adenylate kinase reporter; Blanchard et al., 2016; cited from earlier work
P. aeruginosa = experiment: MIC of clinical P. aeruginosa ocular isolates (antibiotic susceptibility profiles); format: cell-based, Pseudomonas aeruginosa; settings: Pseudomonas aeruginosa, read-out: Minimum Inhibitory Concentration
Text: A series of genotyping and biological assays were used as a preliminary means to evaluate the clonality of clinical P. aeruginosa isolates collected, as follows. Genomic DNA was purified from each isolate using Qiagen DNeasy kits (Hilden, Germany) and used as a template for polymerase chain reactions to detect the presence of the virulence factors exoS, exoY, exoU, exoT, and perV using previously published primers (Table 1). See Allewelt M, Coleman F T, Grout M, Priebe G P, Pier G B. Acquisition of expression of the Pseudomonas aeruginosa ExoU cytotoxin leads to increased bacterial virulence in a murine model of acute pneumonia and systemic spread. Infection and immunity 2000; 68:3998-4004, Lomholt J A, Poulsen K, Kilian M. Epidemic population structure of Pseudomonas aeruginosa: evidence for a clone that is pathogenic to the eye and that has a distinct combination of virulence factors. Infection and immunity 2001; 69, and Ledbetter E C, Mun J J, Kowbel D, Fleiszig S M. Pathogenic phenotype and genotype of Pseudomonas aeruginosa isolates from spontaneous canine ocular infections. Investigative ophthalmology & visual science 2009; 50. […] See Institute C. Performance Standards for Antimicrobial Susceptibility Testing: Twenty-fifth Informational Supplement. Each isolate's ability to form biofilms was quantified. To do so, wells of a polystyrene plate containing 72-hour established biofilms were washed with 0.8% NaCl to remove non adherent cells and stained with crystal violet. To quantify biofilm staining, plates were washed 3 times with H2O, stain was suspended in 30% glacial acetic acid and the optical density (OD600nm) of each well was determined using an automated plate reader, as previously described. See Jacobs A C, Blanchard C E, Catherman S C, Dunman P M, Murata Y. An ribonuclease T2 family protein modulates Acinetobacter baumannii abiotic surface colonization. PloS one 2014; 9.

CO[C@H]1/C=C/O[C@@]2(C)Oc3c(C)c(O)c4c(O)c(c(/C=N/N5CCN(C)CC5)c(O)c4c3C2=O)NC(=O)/C(C)=C\C=C\[C@H](C)[C@H](O)[C@@H](C)[C@@H](O)[C@@H](C)[C@H](OC(C)=O)[C@@H]1C [Rifampicin, rifampicin]
0.0076 µg/mL: MIC in combination (S. aureus; S. aureus 1094178, PT combined with rifampicin) | MIC in combination (S. aureus; S. aureus 1111063, PT combined with rifampicin) | MIC in combination (S. aureus; S. aureus 1125120, PT combined with rifampicin)
0.05 µg/mL: MIC (S. aureus; S. aureus 1097612) | MIC (S. aureus; S. aureus 1101442) | MIC (S. aureus; S. aureus 1110936) | MIC (S. aureus; S. aureus 1122187) | MIC (S. aureus; S. aureus 1122190) | MIC (S. aureus; S. aureus 1125120) | MIC (S. aureus; S. aureus 1144105)
8 h: start of outgrowth of treated culture (S. aureus strain UAMS-1)
0.1 µg/mL: MIC (S. aureus; S. aureus 1094178) | MIC (S. aureus; S. aureus 1111063)
0.0035 µg/mL: MIC in combination (S. aureus; S. aureus 1097612, PT combined with rifampicin) | MIC in combination (S. aureus; S. aureus 1101442, PT combined with rifampicin) | MIC in combination (S. aureus; S. aureus 1110936, PT combined with rifampicin) | MIC in combination (S. aureus; S. aureus 1122187, PT combined with rifampicin) | MIC in combination (S. aureus; S. aureus 1122190, PT combined with rifampicin) | MIC in combination (S. aureus; S. aureus 1144105, PT combined with rifampicin)
0.01 µg/mL: MIC (S. aureus; S. aureus 1071788) | MIC (S. aureus; S. aureus 1094094) | MIC (S. aureus; S. aureus 1094140) | MIC (S. aureus; S. aureus 1094147) | MIC (S. aureus; S. aureus 1094166) | MIC (S. aureus; S. aureus 1097630) | MIC (S. aureus; S. aureus 1103430) | MIC (S. aureus; S. aureus 1122181) | MIC (S. aureus; S. aureus 1122197) | MIC (S. aureus; S. aureus 1132822) | MIC (S. aureus; S. aureus 1142776) | MIC (S. aureus; S. aureus UAMS-1)
0.0015 µg/mL: MIC in combination (S. aureus; S. aureus 1071788, PT combined with rifampicin) | MIC in combination (S. aureus; S. aureus 1094094, PT combined with rifampicin) | MIC in combination (S. aureus; S. aureus 1094140, PT combined with rifampicin) | MIC in combination (S. aureus; S. aureus 1094147, PT combined with rifampicin) | MIC in combination (S. aureus; S. aureus 1094166, PT combined with rifampicin) | MIC in combination (S. aureus; S. aureus 1097630, PT combined with rifampicin) | MIC in combination (S. aureus; S. aureus 1103430, PT combined with rifampicin) | MIC in combination (S. aureus; S. aureus 1122181, PT combined with rifampicin) | MIC in combination (S. aureus; S. aureus 1122197, PT combined with rifampicin) | MIC in combination (S. aureus; S. aureus 1132822, PT combined with rifampicin) | MIC in combination (S. aureus; S. aureus 1142776, PT combined with rifampicin) | MIC in combination (S. aureus; S. aureus UAMS-1, PT combined with rifampicin)

NC[C@H]1O[C@H](O[C@H]2[C@H](O)[C@@H](O[C@H]3O[C@H](CO)[C@@H](O)[C@H](N)[C@H]3O)[C@H](N)C[C@@H]2N)[C@H](N)C[C@@H]1O [Tobramycin, tobramycin]
+: P. aeruginosa biofilm AK Signal (P. aeruginosa biofilm)
0.48 µg/mL: MIC in combination (S. aureus; S. aureus 1071788, PT combined with tobramycin) | MIC in combination (S. aureus; S. aureus 1094166, PT combined with tobramycin) | MIC in combination (S. aureus; S. aureus 1103430, PT combined with tobramycin) | MIC in combination (S. aureus; S. aureus 1110936, PT combined with tobramycin) | MIC in combination (S. aureus; S. aureus 1122187, PT combined with tobramycin) | MIC in combination (S. aureus; S. aureus 1122197, PT combined with tobramycin) | MIC in combination (S. aureus; S. aureus 1142776, PT combined with tobramycin) | MIC in combination (S. aureus; S. aureus 1144105, PT combined with tobramycin) | MIC in combination (S. aureus; S. aureus UAMS-1, PT combined with tobramycin) | MIC (P. aeruginosa; P. aeruginosa ocular isolate RW04 (conjunctiva)) | MIC (P. aeruginosa; P. aeruginosa ocular isolate RW05 (cornea))
0.97 µg/mL: MIC in combination (S. aureus; S. aureus 1101442, PT combined with tobramycin) | MIC in combination (S. aureus; S. aureus 1132822, PT combined with tobramycin) | MIC (S. aureus; S. aureus 1071788)
0.24 µg/mL: MIC (P. aeruginosa; P. aeruginosa ocular isolate RW01 (cornea)) | MIC (P. aeruginosa; P. aeruginosa ocular isolate RW02 (cornea)) | MIC (P. aeruginosa; P. aeruginosa ocular isolate RW03 (cornea)) | MIC (P. aeruginosa; P. aeruginosa ocular isolate RW06 (cornea)) | MIC (P. aeruginosa; P. aeruginosa ocular isolate RW07 (cornea))
6 log: reduction in CFU at 24 hours [1]
3.9 µg/mL: MIC in combination (S. aureus; S. aureus 1094094, PT combined with tobramycin) | MIC in combination (S. aureus; S. aureus 1094147, PT combined with tobramycin) | MIC in combination (S. aureus; S. aureus 1097612, PT combined with tobramycin) | MIC in combination (S. aureus; S. aureus 1097630, PT combined with tobramycin) | MIC in combination (S. aureus; S. aureus 1111063, PT combined with tobramycin) | MIC in combination (S. aureus; S. aureus 1122181, PT combined with tobramycin) | MIC in combination (S. aureus; S. aureus 1122190, PT combined with tobramycin) | MIC (S. aureus; S. aureus 1094094) | MIC (S. aureus; S. aureus 1101442) | MIC (S. aureus; S. aureus 1132822)
1.9 µg/mL: MIC in combination (S. aureus; S. aureus 1094140, PT combined with tobramycin) | MIC (S. aureus; S. aureus 1094166) | MIC (S. aureus; S. aureus 1103430) | MIC (S. aureus; S. aureus 1110936) | MIC (S. aureus; S. aureus 1122187) | MIC (S. aureus; S. aureus 1122197) | MIC (S. aureus; S. aureus 1142776) | MIC (S. aureus; S. aureus 1144105) | MIC (S. aureus; S. aureus UAMS-1)
15.6 µg/mL: MIC in combination (S. aureus; S. aureus 1125120, PT combined with tobramycin) | MIC (S. aureus; S. aureus 1097612) | MIC (S. aureus; S. aureus 1125120)
7.8 µg/mL: MIC in combination (S. aureus; S. aureus 1094178, PT combined with tobramycin) | MIC (S. aureus; S. aureus 1094140) | MIC (S. aureus; S. aureus 1094147) | MIC (S. aureus; S. aureus 1094178) | MIC (S. aureus; S. aureus 1097630) | MIC (S. aureus; S. aureus 1111063) | MIC (S. aureus; S. aureus 1122181) | MIC (S. aureus; S. aureus 1122190)
